Measured values: ChEMBL document CHEMBL2380302, “Synthesis of 3-O-propargylated betulinic acid and its 1,2,3-triazoles as potential apoptotic agents” (Eur J Med Chem, 2013)

What was measured:
HCT-15 [1] = assay: Cytotoxicity against human HCT15 cells at 10 uM after 48 hrs by SRB assay; format: functional; conditions: HCT-15, 48 h, read-out: GI
SF-295 [2] = assay: Cytotoxicity against human SF295 cells at 10 uM after 48 hrs by SRB assay; format: functional; conditions: SF-295, 48 h, read-out: GI
A549 [3] = assay: Cytotoxicity against human A549 cells at 10 uM after 48 hrs by SRB assay; format: functional; conditions: A549, 48 h, read-out: GI
MCF7 [4] = assay: Cytotoxicity against human MCF7 cells at 10 uM after 48 hrs by SRB assay; format: functional; conditions: MCF7, 48 h, read-out: GI
HEp-2 [5] = assay: Cytotoxicity against human Hep2 cells at 10 uM after 48 hrs by SRB assay; format: functional; conditions: HEp-2, 48 h, read-out: GI
PC-3 [6] = assay: Cytotoxicity against human PC3 cells at 10 uM after 48 hrs by SRB assay; format: functional; conditions: PC-3, 48 h, read-out: GI
DU-145 [7] = assay: Cytotoxicity against human DU145 cells at 10 uM after 48 hrs by SRB assay; format: functional; conditions: DU-145, 48 h, read-out: GI
HL-60 [8] = assay: Cytotoxicity against human HL60 cells at 10 uM after 48 hrs by SRB assay; format: functional; conditions: HL-60, 48 h, read-out: GI
THP-1 [9] = assay: Cytotoxicity against human THP1 cells at 10 uM after 48 hrs by SRB assay; format: functional; conditions: THP-1, 48 h, read-out: GI
HCT-15 [10] = assay: Cytotoxicity against human HCT15 cells at 30 uM after 48 hrs by SRB assay; format: functional; conditions: HCT-15, 48 h, read-out: GI
SF-295 [11] = assay: Cytotoxicity against human SF295 cells at 30 uM after 48 hrs by SRB assay; format: functional; conditions: SF-295, 48 h, read-out: GI
A549 [12] = assay: Cytotoxicity against human A549 cells at 30 uM after 48 hrs by SRB assay; format: functional; conditions: A549, 48 h, read-out: GI
MCF7 [13] = assay: Cytotoxicity against human MCF7 cells at 30 uM after 48 hrs by SRB assay; format: functional; conditions: MCF7, 48 h, read-out: GI
HEp-2 [14] = assay: Cytotoxicity against human Hep2 cells at 30 uM after 48 hrs by SRB assay; format: functional; conditions: HEp-2, 48 h, read-out: GI
PC-3 [15] = assay: Cytotoxicity against human PC3 cells at 30 uM after 48 hrs by SRB assay; format: functional; conditions: PC-3, 48 h, read-out: GI
DU-145 [16] = assay: Cytotoxicity against human DU145 cells at 30 uM after 48 hrs by SRB assay; format: functional; conditions: DU-145, 48 h, read-out: GI
HL-60 [17] = assay: Cytotoxicity against human HL60 cells at 30 uM after 48 hrs by SRB assay; format: functional; conditions: HL-60, 48 h, read-out: GI
THP-1 [18] = assay: Cytotoxicity against human THP1 cells at 30 uM after 48 hrs by SRB assay; format: functional; conditions: THP-1, 48 h, read-out: GI
HCT-15 [19] = assay: Cytotoxicity against human HCT15 cells at 50 uM after 48 hrs by SRB assay; format: functional; conditions: HCT-15, 48 h, read-out: GI
SF-295 [20] = assay: Cytotoxicity against human SF295 cells at 50 uM after 48 hrs by SRB assay; format: functional; conditions: SF-295, 48 h, read-out: GI
A549 [21] = assay: Cytotoxicity against human A549 cells at 50 uM after 48 hrs by SRB assay; format: functional; conditions: A549, 48 h, read-out: GI
MCF7 [22] = assay: Cytotoxicity against human MCF7 cells at 50 uM after 48 hrs by SRB assay; format: functional; conditions: MCF7, 48 h, read-out: GI
HEp-2 [23] = assay: Cytotoxicity against human Hep2 cells at 50 uM after 48 hrs by SRB assay; format: functional; conditions: HEp-2, 48 h, read-out: GI
PC-3 [24] = assay: Cytotoxicity against human PC3 cells at 50 uM after 48 hrs by SRB assay; format: functional; conditions: PC-3, 48 h, read-out: GI
HL-60 [25] = assay: Cytotoxicity against human HL60 cells at 50 uM after 48 hrs by SRB assay; format: functional; conditions: HL-60, 48 h, read-out: GI
DU-145 [26] = assay: Cytotoxicity against human DU145 cells at 50 uM after 48 hrs by SRB assay; format: functional; conditions: DU-145, 48 h, read-out: GI
THP-1 [27] = assay: Cytotoxicity against human THP1 cells at 50 uM after 48 hrs by SRB assay; format: functional; conditions: THP-1, 48 h, read-out: GI
HCT-15 [28] = assay: Cytotoxicity against human HCT15 cells after 48 hrs by SRB assay; format: functional, cell-based; conditions: HCT-15, 48 h
A549 [29] = assay: Cytotoxicity against human A549 cells after 48 hrs by SRB assay; format: functional, cell-based; conditions: A549, 48 h
SF-295 [30] = assay: Cytotoxicity against human SF295 cells after 48 hrs by SRB assay; format: functional, cell-based; conditions: SF-295, 48 h
MCF7 [31] = assay: Cytotoxicity against human MCF7 cells after 48 hrs by SRB assay; format: functional, cell-based; conditions: MCF7, 48 h
HEp-2 [32] = assay: Cytotoxicity against human Hep2 cells after 48 hrs by SRB assay; format: functional, cell-based; conditions: HEp-2, 48 h
PC-3 [33] = assay: Cytotoxicity against human PC3 cells after 48 hrs by SRB assay; format: functional, cell-based; conditions: PC-3, 48 h
DU-145 [34] = assay: Cytotoxicity against human DU145 cells after 48 hrs by SRB assay; format: functional, cell-based; conditions: DU-145, 48 h
HL-60 [35] = assay: Cytotoxicity against human HL60 cells after 48 hrs by SRB assay; format: functional, cell-based; conditions: HL-60, 48 h
THP-1 [36] = assay: Cytotoxicity against human THP1 cells after 48 hrs by SRB assay; format: functional, cell-based; conditions: THP-1, 48 h

Row | Compound | inhibition of growth at 10 µM (HCT-15 [1]) [%] | inhibition of growth at 10 µM (SF-295 [2]) [%] | inhibition of growth at 10 µM (A549 [3]) [%] | inhibition of growth at 10 µM (MCF7 [4]) [%] | inhibition of growth at 10 µM (HEp-2 [5]) [%] | inhibition of growth at 10 µM (PC-3 [6]) [%] | inhibition of growth at 10 µM (DU-145 [7]) [%] | inhibition of growth at 10 µM (HL-60 [8]) [%] | inhibition of growth at 10 µM (THP-1 [9]) [%] | inhibition of growth at 30 µM (HCT-15 [10]) [%] | inhibition of growth at 30 µM (SF-295 [11]) [%] | inhibition of growth at 30 µM (A549 [12]) [%] | inhibition of growth at 30 µM (MCF7 [13]) [%] | inhibition of growth at 30 µM (HEp-2 [14]) [%] | inhibition of growth at 30 µM (PC-3 [15]) [%] | inhibition of growth at 30 µM (DU-145 [16]) [%] | inhibition of growth at 30 µM (HL-60 [17]) [%] | inhibition of growth at 30 µM (THP-1 [18]) [%] | inhibition of growth at 50 µM (HCT-15 [19]) [%] | inhibition of growth at 50 µM (SF-295 [20]) [%] | further results
1 | C=C(C)[C@@H]1CC[C@]2(C(=O)O)CC[C@]3(C)[C@H](CC[C@@H]4[C@@]5(C)CC[C@H](OCc6cn(-c7ccc(OC)cc7)nn6)C(C)(C)[C@@H]5CC[C@]43C)[C@@H]12 | 55 | 20 | 38 | 44 | 41 | 5 | 35 | 54 | 50 | 55 | 46 | 40 | 62 | 54 | 8 | 37 | 82 | 77 | 57 | 59 | inhibition of growth at 50 µM (A549 [21]): 51%; inhibition of growth at 50 µM (MCF7 [22]): 93%; inhibition of growth at 50 µM (HEp-2 [23]): 74%; inhibition of growth at 50 µM (PC-3 [24]): 52%; inhibition of growth at 50 µM (HL-60 [25]): 99%; inhibition of growth at 50 µM (DU-145 [26]): 53%; inhibition of growth at 50 µM (THP-1 [27]): 97%; IC50 (HCT-15 [28]): 8 µM; IC50 (A549 [29]): 50 µM; IC50 (SF-295 [30]): 44 µM; IC50 (MCF7 [31]): 14 µM; IC50 (HEp-2 [32]): 23 µM; IC50 (PC-3 [33]): 49 µM; IC50 (DU-145 [34]): 48 µM; IC50 (HL-60 [35]): 8 µM; IC50 (THP-1 [36]): 10 µM
2 | C=C(C)[C@@H]1CC[C@]2(C(=O)O)CC[C@]3(C)[C@H](CC[C@@H]4[C@@]5(C)CC[C@H](OCc6cn(-c7cc(OC)c(OC)c(OC)c7)nn6)C(C)(C)[C@@H]5CC[C@]43C)[C@@H]12 | 47 | 28 | 25 | 50 | 8 | 8 | 3 | 41 | 35 | 35 | 51 | 26 | 71 | 38 | 30 | 10 | 51 | 44 | 43 | 51 | inhibition of growth at 50 µM (A549 [21]): 41%; inhibition of growth at 50 µM (MCF7 [22]): 74%; inhibition of growth at 50 µM (HEp-2 [23]): 48%; inhibition of growth at 50 µM (PC-3 [24]): 46%; inhibition of growth at 50 µM (HL-60 [25]): 65%; inhibition of growth at 50 µM (DU-145 [26]): 11%; inhibition of growth at 50 µM (THP-1 [27]): 58%; IC50 (HCT-15 [28]): > 50 µM; IC50 (A549 [29]): > 50 µM; IC50 (SF-295 [30]): 27 µM; IC50 (MCF7 [31]): 10 µM; IC50 (HEp-2 [32]): > 50 µM; IC50 (PC-3 [33]): > 50 µM; IC50 (DU-145 [34]): > 50 µM; IC50 (HL-60 [35]): 37 µM; IC50 (THP-1 [36]): 39 µM
